Measurements: ChEMBL document CHEMBL1201862, “PubChem BioAssay data set” (2004)
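Interpolation was linear, between the two tested concentrations surrounding the appropriate level; five concentrations were tested over 48 hours in 96-well plates. At the GI50, growth is halved.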 Calls of active or inactive are those of the source. No stated cut-off is given here; in the data, active = GI50 up to about 1.1 µM and inactive = higher.

What was measured:
Test in all cases: NCI anticancer screen, dose series, 48 h
A549 = test system: A549
CAKI-1 = test system: CAKI-1
HCT-15 = test system: HCT-15
HOP-92 = test system: HOP-92
Hs-578T = test system: Hs-578T
K562 = test system: K562
M14 = test system: M14
MDA-MB-435 = test system: MDA-MB-435
MDA-N = test system: MDA-N
MOLT-4 = test system: MOLT-4
NCI/ADR-RES = test system: NCI/ADR-RES
OVCAR-3 = test system: OVCAR-3
OVCAR-5 = test system: OVCAR-5
SK-MEL-28 = test system: SK-MEL-28
SK-MEL-5 = test system: SK-MEL-5
SNB-19 = test system: SNB-19
T47D = test system: T47D
TK-10 = test system: TK-10
UO-31 = test system: UO-31
SF-539 = test system: SF-539

| Structure (SMILES) | GI50 (A549) | GI50 (CAKI-1) | GI50 (HCT-15) | GI50 (HOP-92) | GI50 (Hs-578T) | GI50 (K562) | GI50 (M14) | GI50 (MDA-MB-435) | GI50 (MDA-N) | GI50 (MOLT-4) | GI50 (NCI/ADR-RES) | GI50 (OVCAR-3) | GI50 (OVCAR-5) | GI50 (SK-MEL-28) | GI50 (SK-MEL-5) | GI50 (SNB-19) | GI50 (T47D) | GI50 (TK-10) | GI50 (UO-31) | GI50 (SF-539) |
| --- | --- | --- | --- | --- | --- | --- | --- | --- | --- | --- | --- | --- | --- | --- | --- | --- | --- | --- | --- | --- |
| CCOC(=O)C1CCCC1S(=O)(=O)c1ccc(C)cc1 (stereo not drawn) | > 100 µM (inactive) | > 100 µM (inactive) | > 100 µM | > 100 µM (inactive) | > 100 µM (inactive) | > 100 µM (inactive) | > 100 µM (inactive) | 79.4 µM (inactive) | > 100 µM (inactive) | > 100 µM (inactive) | > 100 µM (inactive) | > 100 µM (inactive) | > 100 µM (inactive) | > 100 µM (inactive) | > 100 µM (inactive) | > 100 µM (inactive) | > 100 µM (inactive) | > 100 µM (inactive) | > 100 µM (inactive) | – |
| COC1(OC)N=C(N)C2(C#N)/C(=N/N(C)C)CC(C)C12C#N (stereo not drawn) | > 100 µM (inactive) | > 100 µM (inactive) | > 100 µM | > 100 µM (inactive) | > 100 µM (inactive) | > 100 µM (inactive) | > 100 µM (inactive) | > 100 µM (inactive) | > 100 µM (inactive) | > 100 µM (inactive) | > 100 µM (inactive) | – | > 100 µM (inactive) | > 100 µM (inactive) | > 100 µM (inactive) | > 100 µM (inactive) | > 100 µM (inactive) | > 100 µM (inactive) | > 100 µM (inactive) | > 100 µM (inactive) |
| CON(C)C(=O)C(C)NC(=O)OC(C)(C)C (stereo not drawn) | > 100 µM (inactive) | – | > 100 µM | > 100 µM (inactive) | > 100 µM (inactive) | > 100 µM (inactive) | > 100 µM (inactive) | > 100 µM (inactive) | > 100 µM (inactive) | > 100 µM (inactive) | > 100 µM (inactive) | > 100 µM (inactive) | > 100 µM (inactive) | > 100 µM (inactive) | > 100 µM (inactive) | > 100 µM (inactive) | > 100 µM (inactive) | > 100 µM (inactive) | > 100 µM (inactive) | > 100 µM (inactive) |
| C=C(C)[C@@H]1CCC2=C[C@H](OC2=O)[C@@]2(C)C[C@@H]2C(=O)/C=C(/C)C(=O)[C@H]1OC(C)=O | 29.2 µM (inactive) | 14.2 µM (inactive) | 12.7 µM | 41.2 µM (inactive) | 16.9 µM (inactive) | – | 24.4 µM (inactive) | 13.2 µM (inactive) | 8.67 µM (inactive) | 5.66 µM (inactive) | 26.5 µM (inactive) | 14.3 µM (inactive) | 15.5 µM (inactive) | 14.8 µM (inactive) | 16.2 µM (inactive) | 29.2 µM (inactive) | 5.64 µM (inactive) | 24.5 µM (inactive) | 10.9 µM (inactive) | 7.13 µM (inactive) |
| COC(=O)c1c2c(cc3c1CC1(Cc4cc5c(c(C=O)c4C1)CCCC5)C3)CCCC2 (stereo not drawn) | 33.5 µM (inactive) | – | 34.4 µM | 56.6 µM (inactive) | 29.2 µM (inactive) | 33.2 µM (inactive) | > 100 µM (inactive) | > 100 µM (inactive) | 89.3 µM (inactive) | 55.1 µM (inactive) | 94.6 µM (inactive) | 29.9 µM (inactive) | > 100 µM (inactive) | – | 71.4 µM (inactive) | – | 45.3 µM (inactive) | 97.9 µM (inactive) | 0.103 µM (active) | 74.8 µM (inactive) |
| C=C1C(=O)O[C@H]2C[C@@H]1C(=O)CC(C)CCCC(C)=CCC[C@@]2(C)O (stereo partly drawn) | > 25 µM (inactive) | – | > 25 µM | > 25 µM (inactive) | > 25 µM (inactive) | – | > 25 µM (inactive) | > 25 µM (inactive) | > 25 µM (inactive) | > 25 µM (inactive) | > 25 µM (inactive) | > 25 µM (inactive) | > 25 µM (inactive) | > 25 µM (inactive) | > 25 µM (inactive) | > 25 µM (inactive) | > 25 µM (inactive) | > 25 µM (inactive) | > 25 µM (inactive) | > 25 µM (inactive) |
| CCOC(=O)C(=O)C(=O)NN(C)C1=NCCN1 | > 100 µM (inactive) | – | > 100 µM | > 100 µM (inactive) | > 100 µM (inactive) | > 100 µM (inactive) | > 100 µM (inactive) | > 100 µM (inactive) | > 100 µM (inactive) | > 100 µM (inactive) | > 100 µM (inactive) | > 100 µM (inactive) | > 100 µM (inactive) | > 100 µM (inactive) | > 100 µM (inactive) | > 100 µM (inactive) | > 100 µM (inactive) | > 100 µM (inactive) | > 100 µM (inactive) | > 100 µM (inactive) |
| O=c1[nH]nc(-c2ccccc2)n1/N=C\c1ccccc1 | > 100 µM (inactive) | > 100 µM (inactive) | > 100 µM | > 100 µM (inactive) | > 100 µM (inactive) | > 100 µM (inactive) | – | > 100 µM (inactive) | > 100 µM (inactive) | > 100 µM (inactive) | > 100 µM (inactive) | > 100 µM (inactive) | > 100 µM (inactive) | > 100 µM (inactive) | > 100 µM (inactive) | – | > 100 µM (inactive) | > 100 µM (inactive) | > 100 µM (inactive) | > 100 µM (inactive) |
